Laboratory results: paper PMC11649117, “SLMO transfers phosphatidylserine between the outer and inner mitochondrial membrane in Drosophila” (PLOS Biology, 2024)

Molecular target: T1, SLMO (Slowmo); MBP-SLMO (Drosophila melanogaster, UniProt Q9V3U9)
T1 construct: N-terminal MBP fusion from pMAL-c6T (BamHI/EcoRI), E. coli BL21(DE3), Ni-NTA purified; tag kept
T1 sequence (Q9V3U9 1-215): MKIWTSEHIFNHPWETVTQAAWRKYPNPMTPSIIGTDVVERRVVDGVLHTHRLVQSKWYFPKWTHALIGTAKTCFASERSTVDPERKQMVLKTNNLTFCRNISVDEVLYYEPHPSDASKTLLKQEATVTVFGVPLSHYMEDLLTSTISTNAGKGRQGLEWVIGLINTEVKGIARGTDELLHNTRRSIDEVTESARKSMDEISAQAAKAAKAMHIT
Test: liposome lipid transfer assay, NBD dequenching
Assay type: biochemical
Settings: labelled compound, donor liposomes PC:PE:Rhod-PE:NBD-PS 56:40:3:1, acceptor PC:PE:CL 55:40:5, no chemical conversion

Compound: CCCCCCCC/C=C\CCCCCCCC(=O)OC[C@H](COP(=O)(O)OC[C@H](N)C(=O)O)OC(=O)CCCCCCCCCCCNc1ccc([N+](=O)[O-])c2nonc12 [NBD-PS]
- liposome lipid transfer assay, NBD dequenching: SLMO efficiently transported PS but not PE between liposomes in vitro
